Assay results as given in patent publication US4835253A, “Specific inhibitors of tissue kallikrein” (The University Hospital, priority 1987, dated 1989).
Where “and” joins values, the source holds several entries; their conditions need not be identical. Equal values may be shown once. Read-outs that look alike come from different tables or passages of the source. Ada = not defined here

Legend:
[1] = target: T1, Human urinary kallikrein (Homo sapiens, UniProt P06870); experiment: KI determination: inhibition of HUK cleavage of chromogenic substrate S-2266; assay type: biochemical
T1 construct: Human urinary kallikrein (hereinafter "HUK") was highly purified using a modification of published methods; from tissue; host or cells: human urine
Experimental: (§1) Human urinary kallikrein (hereinafter "HUK") was highly purified using a modification of published methods that employ ultrafiltration, aprotinin-CH-sepharose affinity chromatography, and Sephadex G-100 gel filtration [ole-MoiYoi et al., Proc. Natl. Acad. Sci. USA 76: 3121-3125 (1979)]. […] The pH of each fraction was determined immediately upon elution, and the fraction was neutralized by addition of 2.0 ml of 2M Tris-HCL buffer (pH 8.0).
KI Determinations: KI measurements were performed using a HP8450A diode array spectrophotometer (Hewlett Packard; Palo Alto, Calif.) attached to a Model 216 computer using the multi-component assay program modified to allow simultaneous determination of reaction velocity in four samples. Dixon plots were used to data reduction and for calculation of […]. […] Inhibition of biologically active kinin from LMW-kininogen was done at pH 7.7 and 37 C.
Procedurally, the KI values for the preliminary analogue inhibitors reported previously [Okunishi et al., Hypertension 7 (Suppl. I): I-72-I-75 (1985)] were determined by adding the chromogenic substrate S-2266 comprising D-Val-Leu-Arg-4-nitroaniline to a mixture of the analogue inhibitor and the HUK.
(§2) Initially, the inhibitor constant (KI) for each of these novel inhibitor compositions was determined using purified HUK and the tripeptide nitroanilide, S-2266. The ability to inhibit hydrolysis of the S-2266 substrate was performed in 50 mM tris-HCL buffer (pH 9.0) at 37 C. Subsequently, the ability of these novel inhibitors to inhibit human plasma kallikrein and bovine pancreatic trypsin were similarly examined using the specific substrates H-D-Pro-Phe-Arg-p-nitroanilide (S-2302) and Glu-Gly-Arg-p-nitroanilide (S-2444) respectively. The degradation products of each series was purified by HPLC and quantified by liquid scintillation counting as previously described.

[2] = target: T1, Human urinary kallikrein; experiment: KM determination: hydrolysis of substrate analogues by HUK (HPLC, scintillation counting); assay type: biochemical; settings: analysis of the reaction products
Experimental: as §1
KM Determination: Hydrolysis of the substrate analogue inhibitors by HUK was measured by combining the test inhibitor at different concentrations on either side of the KM value with the enzyme at pH 9.0 for thirty minutes at 37 C. The cleavage products were separated from the starting material in the digest by HPLC on a Beckman octadecylsilane (ODS) column (1×25 cm) using a thirty minute gradient of from 0-70% CH3 CN in triethylammonium phosphate buffer (pH 7.0). The starting materials and reaction products were completely resolved under these conditions. Absorbance of the HPLC effluent was monitored at 220 nm. Individual fractions were collected and the amount of peptide degradation products was quantitated by counting in a liquid scintillation counter. Samples containing individual inhibitors were incubated without HUK and solvent blanks were also chromatographed and analyzed in the same way.
For test purposes, in these HUA cleavage studies, individual peptide sequences were synthesized, purified, and characterized as previously described herein. For these cleavage studies, doubly labelled peptides were prepared using [^3 H]-valine and […] respectively. In addition, 6.0N HCL-dioxane was used for removal of tert-butoxycarbonyl protecting groups and 90% hydrogen fluoride/10% anisole (volume/volume) for global deprotection on completion of the synthesis. After extraction and gel filtration on Sephadex G-15, final purification was completed by isocratic elution from a synchrom RP-P column (2.1×25 cm) with CH3 CN--H2 O (8 ml/min). The resultant peptides were deemed to be homogeneous by amino acid analysis; high performance liquid chromatography; thin layer chromatography; and A230 /A260 ratio analysis. […]

[3] = target: Human Plasma Kallikrein (Homo sapiens, UniProt P03952); experiment: KI against plasma kallikrein with substrate S-2302; assay type: biochemical; settings: read-out: K1, Human Plasma Kallikrein
Experimental: as §2

[4] = target: T2, bovine pancreatic trypsin (Bos taurus, UniProt P00760); experiment: KI against trypsin with substrate S-2444; assay type: biochemical; settings: read-out: K1, Trypsin
T2 sequence (P00760 24-246): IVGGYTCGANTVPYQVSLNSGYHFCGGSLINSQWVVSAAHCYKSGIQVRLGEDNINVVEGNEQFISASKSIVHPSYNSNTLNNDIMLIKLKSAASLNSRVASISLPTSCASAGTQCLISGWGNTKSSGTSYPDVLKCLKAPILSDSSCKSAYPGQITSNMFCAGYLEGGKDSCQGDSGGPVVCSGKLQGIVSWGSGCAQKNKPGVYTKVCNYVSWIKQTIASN
Experimental: as §2

[5] = target: T3, rat submaxillary gland kallikrein (Rattus norvegicus, UniProt P00758); experiment: Rat femoral artery blood flow response to RSK during and after inhibitor infusion; assay type: in vivo
T3 sequence (P00758 25-261): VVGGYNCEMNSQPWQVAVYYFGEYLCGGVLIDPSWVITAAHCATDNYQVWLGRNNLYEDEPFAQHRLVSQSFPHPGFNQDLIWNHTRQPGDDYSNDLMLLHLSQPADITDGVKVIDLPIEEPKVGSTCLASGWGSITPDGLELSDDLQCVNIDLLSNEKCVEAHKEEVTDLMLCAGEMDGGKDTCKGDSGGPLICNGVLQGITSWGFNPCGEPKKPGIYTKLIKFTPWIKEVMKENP
Source text: (§3) In order to develop a more reproducible, less tachyphylactic system, a rat blood flow model was developed and assessed in male Sprague-Dawley rats. These animals were anesthetized subcutaneously with urethane (1.4 g/kg). Polyethylene PE-10 tubing was inserted into the right femoral artery and femoral vein for intra-arterial and intravenous injections, respectively, the arterial catheter was inserted such that the tip was located immediately proximal to the bifurcation. The rats were tracheostomized and cannulated with PE-200 tubing. A subcutaneous 23 gauge needle was left in the back of the animal for booster injections of urethane (0.35 g/kg every 2.5 hours). A blood flow probe (1.5 mm circumference) was placed on the left femoroal artery and the mean femoral arterial blood flow was monitored with a square-wave electromagnetic flowmeter (Carolina Medical Electronics, model 501). Rat submaxillary gland kallikrein (hereinafter "RSK") or porcine pancreatic kallikrein (hereinafter "PPK") was given intra-arterially, unless otherwise indicated, until a reproducible response was obtained. Each animal was then infused intravenously with KKI-7 inhibitor in DMSO (206 nmole/0.022 ml/min) or with the DMSO vehicle (0.022 ml/min). Bradykinin was also given intra-arterially to determine whether or not the KKI-7 inhibitor effected the blood flow response to bradykinin. The magnitude and duration of the responses to PPK, RSK, and bradykinin were compared before, during, and after the intravenous infusion of KKI-7 or the DMSO vehicle alone. The blood flow increase over the basal blood flow was integrated and expressed as arbitrary units or as the percent change from blood flow increased observed during the control period. The results are provided by FIG. 1 and Table IV below.

[6] = target: porcine pancreatic kallikrein (Sus scrofa, UniProt P00752); experiment: Rat femoral artery blood flow response to PPK during and after inhibitor infusion; assay type: in vivo
Source text: as §3

[7] = system: bradykinin; experiment: Rat femoral artery blood flow response to bradykinin during inhibitor infusion; assay type: in vivo
Source text: as §3, with “Each animal was then infused intravenously with KKI-7 inhibitor in DMSO (206 nmole/0.022 ml/min) or with the DMSO vehicle (0.022 ml/min). Bradykinin was also given intra-arterially to determine whether or not the KKI-7 inhibitor effected the blood flow response to bradykinin. The magnitude and duration of the responses to PPK, RSK, and bradykinin were compared before, during, and after the intravenous infusion of KKI-7 or the DMSO vehicle alone.” left out, “The results are provided by FIG. 1 and Table IV below.” left out

[8] = Mean arterial blood pressure in normotensive, salt-replete rats (infusion or bolus); assay type: in vivo, rat
Experimental: Subsequently, a third study utilizing normotensive, salt-replete rats was performed employing an infusion of KKI-7 at a rate of 200 ug of inhibitor per kilogram of rat per minute (200 ug/kg/min). Eight rats each received this infusion for 15 minutes during which the change in mean arterial blood pressure (Torr) was monitored. The results are provided by FIG. 2. In addition, a series of bolus injections were given to conscious, salt-replete, normotensive rats to determine the ED50 dosage necessary to cause a substantive increase in blood pressure. The results are graphically illustrated by FIG. 3 as the log-dose response effect of KKI-7 upon blood pressure.

[9] = Effects of the inhibitor infusion itself in the rat blood flow model; assay type: in vivo
Source text: as §3, with “Each animal was then infused intravenously with KKI-7 inhibitor in DMSO (206 nmole/0.022 ml/min) or with the DMSO vehicle (0.022 ml/min). Bradykinin was also given intra-arterially to determine whether or not the KKI-7 inhibitor effected the blood flow response to bradykinin. The magnitude and duration of the responses to PPK, RSK, and bradykinin were compared before, during, and after the intravenous infusion of KKI-7 or the DMSO vehicle alone.” left out, “The results are provided by FIG. 1 and Table IV below.” left out

[10] = target: T4, Rat urinary kallikrein (Rattus norvegicus, UniProt P00758); experiment: Blood pressure response to injected rat urinary kallikrein during inhibitor infusion; assay type: in vivo; settings: infusion 32 nmol/min/animal, anesthetized rats, RUK 203.5 ng
T4 sequence (P00758 25-261): T3 sequence (P00758 25-261)
Experimental: A series of in-vivo studies were undertaken to determine the effective of the KKI-7 and KKI-8 inhibitors on the blood pressure response to glandular kallikrein. Initially, three female Dahl hypertension-resistant rats (Brookhaven Laboratories, Brookhaven, N.Y.), and four male Sprague-Dewley rats (Charles River, Wilmington, Mass.) were utilized. Each of these animals was anesthetized with Inactin (100 mg/kg ip) and cannulated in a femoral artery with PE-50 polyethylene tubing (Clay Adams, Parsippany, N.J.) which was connected to a Hewlett-Packard model 1280 blood pressure transducer and model 7702B recorder. The right jugular vein was cannulated with PE-10 tubing. The rats were tracheostomized, but respiration was not artificially assisted. Rat urinary kallikrein (hereinafter "RUK") was repeatedly administered via a venous cannula until a reproducable response was obtained. KKI-8 inhibitor was then infused using a Harvard model 901 infusion pump at a rate of 32 nmol/0.022 ml/min. RUK (203.5 ng in 50 ul) was injected during the infusion period. After the infusion was stopped, the reversibility of the inhibition was examined by further injections of RUK. The infusion of KKI-8 (32 nmol/min/animal) inhibited the very gradual and modest decrease in blood pressure otherwise elicited with RUK.

[11] = HUK, S-2266, text, read-out: KI values
[12] = S-2266, 50 mM tris-HCL pH 9.0, 37 C, read-out: K1, Human Urinary Kallikrein
[13] = iv infusion 206 nmole/0.022 ml/min in DMSO
[14] = iv infusion 206 nmole/0.022 ml/min in DMSO, 2 units PPK

porcine pancreatic kallikrein, sequence (P00752 8-246): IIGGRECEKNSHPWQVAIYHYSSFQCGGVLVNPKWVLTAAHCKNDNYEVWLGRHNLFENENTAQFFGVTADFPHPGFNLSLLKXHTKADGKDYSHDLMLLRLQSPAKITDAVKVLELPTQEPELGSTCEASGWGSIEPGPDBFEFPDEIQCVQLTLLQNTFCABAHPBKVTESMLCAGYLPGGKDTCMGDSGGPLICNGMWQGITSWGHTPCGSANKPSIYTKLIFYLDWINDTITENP
T1 sequence (P06870 25-262): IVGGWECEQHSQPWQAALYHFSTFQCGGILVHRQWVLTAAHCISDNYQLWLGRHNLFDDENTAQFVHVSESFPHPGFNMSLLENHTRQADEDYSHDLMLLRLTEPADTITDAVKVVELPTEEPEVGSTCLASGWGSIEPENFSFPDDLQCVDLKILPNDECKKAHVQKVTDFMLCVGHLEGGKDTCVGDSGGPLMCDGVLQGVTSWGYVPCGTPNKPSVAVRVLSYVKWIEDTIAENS
Human Plasma Kallikrein, sequence (P03952 20-638): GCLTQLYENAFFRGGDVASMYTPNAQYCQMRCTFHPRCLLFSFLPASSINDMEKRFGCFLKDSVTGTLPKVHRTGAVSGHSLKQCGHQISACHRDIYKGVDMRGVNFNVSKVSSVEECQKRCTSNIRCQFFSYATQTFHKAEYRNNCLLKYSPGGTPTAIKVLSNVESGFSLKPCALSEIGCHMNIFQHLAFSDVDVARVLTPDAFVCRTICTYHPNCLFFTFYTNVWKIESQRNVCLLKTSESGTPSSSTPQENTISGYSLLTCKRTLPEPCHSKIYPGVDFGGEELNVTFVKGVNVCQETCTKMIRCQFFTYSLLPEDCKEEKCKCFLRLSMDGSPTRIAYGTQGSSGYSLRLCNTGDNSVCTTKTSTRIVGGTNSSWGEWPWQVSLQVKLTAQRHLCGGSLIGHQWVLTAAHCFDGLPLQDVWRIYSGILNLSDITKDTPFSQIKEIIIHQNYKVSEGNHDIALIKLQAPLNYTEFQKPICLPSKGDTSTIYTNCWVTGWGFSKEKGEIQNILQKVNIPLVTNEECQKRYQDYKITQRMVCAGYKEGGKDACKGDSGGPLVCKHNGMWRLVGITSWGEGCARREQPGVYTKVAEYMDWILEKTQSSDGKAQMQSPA

CC(C)[C@H](NC(=O)[C@H](CO)NC(=O)[C@H](CCCNC(=N)N)NC(=O)[C@H](Cc1ccccc1)NC(=O)CC1CCCCC1)C(=O)N[C@@H](CCC(N)=O)C(N)=O [KKI-7, Cha-Phe-Arg-Ser-Val-Gln-NH2]
Ki [1, 11]: 4 µM
Ki [1, 12]: 4 µM
rate of cleavage by HUK relative to hexapeptides containing proline in the P3 position [2]: approximately 15%
Ki [3]: 244 µM
Ki [4]: 12.3 µM
second phase of the response to RSK, of the control value, individual values ([5]; RSK reinjected 10-30 minutes after the infusion was started): 6% and 26%
CHANGE IN BLOOD FLOW (% OF CONTROL), RSK injected, AFTER INFUSION 30-60 min [5, 13]: 35%
CHANGE IN BLOOD FLOW (% OF CONTROL), RSK injected, AFTER INFUSION <10 min [5, 13]: 11%
CHANGE IN BLOOD FLOW (% OF CONTROL), RSK injected, DURING INFUSION 10-30 min [5, 13]: 16%
CHANGE IN BLOOD FLOW (% OF CONTROL), RSK injected, DURING INFUSION <10 min [5, 13]: 52%
response to RSK injections, of the control response, range ([5]; within the first ten minutes after infusion was begun): 49-56%
response to the injection of PPK ([6]; 2 units of PPK, during and after infusion): reduced
CHANGE IN BLOOD FLOW (% OF CONTROL), PPK injected, AFTER INFUSION 30-60 min [6, 14]: 52%
CHANGE IN BLOOD FLOW (% OF CONTROL), PPK injected, DURING INFUSION 10-30 min [6, 14]: 31%
CHANGE IN BLOOD FLOW (% OF CONTROL), PPK injected, DURING INFUSION <10 min [6, 14]: 38%
effect on the response to bradykinin ([7]; bradykinin injected during the inhibitor infusion): no affect
CHANGE IN BLOOD FLOW (% OF CONTROL), BK injected, DURING INFUSION <10 min ([7]; iv infusion 206 nmole/0.022 ml/min in DMSO, 1-2 ng bradykinin): 95%
effect on mean arterial blood pressure ([8]; bolus injection or infusion 200 ug/kg/min for 15 minutes): induces substantial increases
ED50 dose, increase in blood pressure ([8]; bolus injections, conscious, salt-replete, normotensive rats): 0.75 mg/kg
side-effects of infusing ([9]; during the experimental period): No specific side-effects
change in blood flow caused by the infusion itself ([9]; infusion in the DMSO vehicle): moderate, transient increase in blood flow

Ada-Phe-Arg-Ser-Val-Gln-NH2 (Ada-FRSVQ-NH2; reading uncertain; also: printed as Ada-Phe-Arg-Ser-Val-Gln-NH2) [KKI-8]
Ki [1, 11]: 4.2 µM
Ki [1, 12]: 4.2 µM
rate of cleavage by HUK relative to hexapeptides containing proline in the P3 position [2]: approximately 15%
Ki [3]: 358 µM
Ki [4]: 71.8 µM
effect on decrease in blood pressure elicited with RUK [10]: inhibited
